According to patent US11685746B2, “Heteroaryl compounds for treating Huntington's disease” (PTC THERAPEUTICS, INC., priority 2018, dated 2023):

The molecules below were run on Endogenous Huntingtin Protein (assay: Endogenous Huntingtin Protein Assay (MSD plates, MW1 or MAB2166 capture antibody)). Details: Table 1.
Type: cell-based
Procedure, shortened: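 Endogenous huntingtin was captured overnight at 4° C on wells coated with 1 μg/mL MW1 (polyglutamine-specific) or MAB2166. Detection used rabbit #5656S and then goat anti-rabbit SULFO-TAG, both at 0.25 μg/mL and 1 h at room temperature. Plates were imaged on the MSD system in read buffer T.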

`CN(c1nc2sc(-c3ccc(-c4cn[nH]c4)cn3)nc2s1)[C@@H]1C[C@H]2CC[C@@H](C1)N2` [Compound 174, N-[(1R,3s,5S)-8-azabicyclo[3.2.1]octan-3-yl]-N-methyl-5-[5-(1H-pyrazol-4-yl)pyridin-2-yl][1,3]thiazolo[5,4-d][1,3]thiazol-2-amine] and `CN(c1nc2sc(-c3ccc(-c4cn[nH]c4)c4cn[nH]c34)nc2s1)[C@H]1C[C@]2(C)CC[C@](C)(C1)N2` [Compound 110, N-[(1R,3s,5S)-1,5-dimethyl-8-azabicyclo[3.2.1]octan-3-yl]-N-methyl-5-[4-(1H-pyrazol-4-yl)-1H-indazol-7-yl][1,3]thiazolo[5,4-d][1,3]thiazol-2-amine] cannot be ordered by IC50: at most 100 nM for the first, at most 100 nM for the second.

`CN(c1nc2sc(-c3cc(F)c(-c4cn[nH]c4)cc3F)nc2s1)C1CC(C)(C)NC(C)(C)C1` [Compound 4, 5-[2,5-difluoro-4-(1H-pyrazol-4-yl)phenyl]-N-methyl-N-(2,2,6,6-tetramethylpiperidin-4-yl)[1,3]thiazolo[5,4-d][1,3]thiazol-2-amine] and `CN1CCC(Nc2nc3sc(-c4ccc(-c5cn[nH]c5)cc4O)nc3s2)CC1` [Compound 23, 2-{5-[(1-methylpiperidin-4-yl)amino][1,3]thiazolo[5,4-d][1,3]thiazol-2-yl}-5-(1H-pyrazol-4-yl)phenol] cannot be ordered by IC50: at most 100 nM for the first, at most 100 nM for the second.

`CN(c1nc2sc(-c3ccc(-c4cn[nH]c4)cc3O)nc2s1)C1CCNCC1` [Compound 14, 2-{5-[methyl(piperidin-4-yl)amino][1,3]thiazolo[5,4-d][1,3]thiazol-2-yl}-5-(1H-pyrazol-4-yl)phenol] and `CN(c1nc2sc(-c3ccc(-c4cn[nH]c4)nc3)nc2s1)C1CC(C)(C)NC(C)(C)C1` [Compound 135, N-methyl-5-[6-(1H-pyrazol-4-yl)pyridin-3-yl]-N-(2,2,6,6-tetramethylpiperidin-4-yl)[1,3]thiazolo[5,4-d][1,3]thiazol-2-amine] cannot be ordered by IC50: at most 100 nM for the first, 100 to 500 nM for the second.

First: CN(c1nc2sc(-c3ncc(-n4nccn4)cc3O)nc2s1)C1CCNCC1 [Compound 214, 2-{5-[methyl(piperidin-4-yl)amino][1,3]thiazolo[5,4-d][1,3]thiazol-2-yl}-5-(2H-1,2,3-triazol-2-yl)pyridin-3-ol]
Second: CCN(c1nc2sc(-c3ncc(-c4cn[nH]c4)cc3O)nc2s1)C1CCN(C)CC1 [Compound 218, 2-{5-[ethyl(1-methylpiperidin-4-yl)amino][1,3]thiazolo[5,4-d][1,3]thiazol-2-yl}-5-(1H-pyrazol-4-yl)pyridin-3-ol]
The IC50 of the first is higher: 500 to 1000 nM for the first, at most 100 nM for the second.

`CC1(C)CC(Oc2nc3sc(-c4ccc(-c5cn[nH]c5)cc4O)nc3s2)CC(C)(C)N1` [Compound 37, 5-(1H-pyrazol-4-yl)-2-{5-[(2,2,6,6-tetramethylpiperidin-4-yl)oxy][1,3]thiazolo[5,4-d][1,3]thiazol-2-yl}phenol] and `CN(c1nc2sc(-c3ncc(Br)cc3O)nc2s1)[C@@H]1C[C@H]2CC[C@@H](C1)N2` [Compound 185, 2-(5-{[(1R,3s,5S)-8-azabicyclo[3.2.1]octan-3-yl](methyl)amino}[1,3]thiazolo[5,4-d][1,3]thiazol-2-yl)-5-bromopyridin-3-ol] cannot be ordered by IC50: at most 100 nM for the first, at most 100 nM for the second.

`Cc1cc(-c2cnc(-c3nc4sc(N(C)C5CCNCC5)nc4s3)c(O)c2)cnn1` [Compound 224, 2-{5-[methyl(piperidin-4-yl)amino][1,3]thiazolo[5,4-d][1,3]thiazol-2-yl}-5-(6-methylpyridazin-4-yl)pyridin-3-ol] and `Cn1cc2cc(-c3nc4sc(C5CCNCC5)nc4s3)cc(F)c2n1` [Compound 11, 7-fluoro-2-methyl-5-[5-(piperidin-4-yl)[1,3]thiazolo[5,4-d][1,3]thiazol-2-yl]-2H-indazole] cannot be ordered by IC50: at most 100 nM for the first, at most 100 nM for the second.

`C[C@H]1C[C@@H](N(C)c2nc3sc(-c4ncc(-c5cn[nH]c5)c5cc[nH]c45)nc3s2)CCN1` [Compound 98, N-methyl-N-[(2S,4S)-2-methylpiperidin-4-yl]-5-[4-(1H-pyrazol-4-yl)-1H-pyrrolo[2,3-c]pyridin-7-yl][1,3]thiazolo[5,4-d][1,3]thiazol-2-amine] and “N-methyl-N-[(2S,4R)-2-methylpiperidin-4-yl]-5-[4-(1H-pyrazol-4-yl)-1H-pyrrolo[2,3-c]pyridin-7-yl][1,3]thiazolo[5,4-d][1,3]thiazol-2-amine [Compound 72]” cannot be ordered by IC50: at most 100 nM for the first, at most 100 nM for the second.

`CC(C)(C)NC1CCN(c2nc3sc(-n4ccc(-c5cn[nH]c5)cc4=O)nc3s2)C1` (stereo not shown) [Compound 151, 1-{5-[3-(tert-butylamino)pyrrolidin-1-yl][1,3]thiazolo[5,4-d][1,3]thiazol-2-yl}-4-(1H-pyrazol-4-yl)pyridin-2(1H)-one] and `CN(c1nc2sc(-n3ccccc3=O)nc2s1)[C@@H]1C[C@H]2CC[C@@H](C1)N2` [Compound 187, 1-(5-{[(1R,3s,5S)-8-azabicyclo[3.2.1]octan-3-yl](methyl)amino}[1,3]thiazolo[5,4-d][1,3]thiazol-2-yl)pyridin-2(1H)-one] fall in the same range of IC50: 100 to 500 nM for the first, 100 to 500 nM for the second.

First: Cc1nccn1-c1cnc(-c2nc3sc(N(C)[C@H]4C[C@]5(C)CC[C@](C)(C4)N5)nc3s2)cn1 [Compound 67, N-[(1R,3s,5S)-1,5-dimethyl-8-azabicyclo[3.2.1]octan-3-yl]-N-methyl-5-[5-(2-methyl-1H-imidazol-1-yl)pyrazin-2-yl][1,3]thiazolo[5,4-d][1,3]thiazol-2-amine]
Second: CC1CC(N(C)c2nc3sc(-c4ccc(-n5nccn5)c5cc[nH]c45)nc3s2)CCN1C (stereo not shown) [Compound 118, N-(1,2-dimethylpiperidin-4-yl)-N-methyl-5-[4-(2H-1,2,3-triazol-2-yl)-1H-indol-7-yl][1,3]thiazolo[5,4-d][1,3]thiazol-2-amine]
The IC50 of the first is lower: at most 100 nM for the first, 500 to 1000 nM for the second. The first is the more potent here.

`Cc1ncc(-c2cnc(-c3nc4sc(N(C)C5CCNCC5)nc4s3)c(O)c2)s1` [Compound 222, 2-{5-[methyl(piperidin-4-yl)amino][1,3]thiazolo[5,4-d][1,3]thiazol-2-yl}-5-(2-methyl-1,3-thiazol-5-yl)pyridin-3-ol] and `CN(c1nc2sc(-c3cnc(-n4ccnc4)cn3)nc2s1)[C@H]1C[C@]2(C)CC[C@](C)(C1)N2` [Compound 103, N-[(1R,3s,5S)-1,5-dimethyl-8-azabicyclo[3.2.1]octan-3-yl]-5-[5-(1H-imidazol-1-yl)pyrazin-2-yl]-N-methyl[1,3]thiazolo[5,4-d][1,3]thiazol-2-amine] cannot be ordered by IC50: at most 100 nM for the first, at most 100 nM for the second.

`CN(c1nc2sc(-c3ncc(Br)cn3)nc2s1)[C@@H]1C[C@H]2CC[C@@H](C1)N2` [Compound 186, N-[(1R,3s,5S)-8-azabicyclo[3.2.1]octan-3-yl]-5-(5-bromopyrimidin-2-yl)-N-methyl[1,3]thiazolo[5,4-d][1,3]thiazol-2-amine] and `CN1CCC(N(C)c2nc3sc(-c4ncc(-c5cn[nH]c5)cc4O)nc3s2)CC1` [Compound 217, 2-{5-[methyl(1-methylpiperidin-4-yl)amino][1,3]thiazolo[5,4-d][1,3]thiazol-2-yl}-5-(1H-pyrazol-4-yl)pyridin-3-ol] cannot be ordered by IC50: at most 100 nM for the first, at most 100 nM for the second.

Compared with `COc1cc(-c2cn[nH]c2)ccc1-c1nc2sc(N(C)C3CCNCC3)nc2s1` [Compound 200, 5-[2-methoxy-4-(1H-pyrazol-4-yl)phenyl]-N-methyl-N-(piperidin-4-yl)[1,3]thiazolo[5,4-d][1,3]thiazol-2-amine], `CCCN1[C@@H]2CC[C@H]1C[C@H](N(C)c1nc3sc(-n4ccc(-c5cn[nH]c5)cc4=O)nc3s1)C2` [Compound 165, 1-(5-{methyl[(1R,3s,5S)-8-propyl-8-azabicyclo[3.2.1]octan-3-yl]amino}[1,3]thiazolo[5,4-d][1,3]thiazol-2-yl)-4-(1H-pyrazol-4-yl)pyridin-2(1H)-one] is lower in IC50: 1000 to 3000 nM for the first, at most 100 nM for the second. The second is the more potent here.

`CN(c1nc2sc(-c3ncc(-c4cnsc4)cc3O)nc2s1)C1CCNCC1` [Compound 216, 2-{5-[methyl(piperidin-4-yl)amino][1,3]thiazolo[5,4-d][1,3]thiazol-2-yl}-5-(1,2-thiazol-4-yl)pyridin-3-ol] and `C[C@H]1C[C@@H](N(C)c2nc3sc(-c4ccc(-c5cn[nH]c5)c5cc[nH]c45)nc3s2)CCN1` [Compound 97, N-methyl-N-[(2S,4S)-2-methylpiperidin-4-yl]-5-[4-(1H-pyrazol-4-yl)-1H-indol-7-yl][1,3]thiazolo[5,4-d][1,3]thiazol-2-amine] cannot be ordered by IC50: at most 100 nM for the first, at most 100 nM for the second.

`CN(c1nc2sc(-c3ncc(-c4cn[nH]c4)cc3O)nc2s1)C1CCNCC1` [Compound 47, 2-{5-[methyl(piperidin-4-yl)amino][1,3]thiazolo[5,4-d][1,3]thiazol-2-yl}-5-(1H-pyrazol-4-yl)pyridin-3-ol] and `CN1CCCC2(CCN2c2nc3sc(-c4ncc(-c5cn[nH]c5)c5cc[nH]c45)nc3s2)C1` (stereo not shown) [Compound 96, 7-[5-(6-methyl-1,6-diazaspiro[3.5]nonan-1-yl)[1,3]thiazolo[5,4-d][1,3]thiazol-2-yl]-4-(1H-pyrazol-4-yl)-1H-pyrrolo[2,3-c]pyridine] cannot be ordered by IC50: at most 100 nM for the first, at most 100 nM for the second.

`C[C@@H]1C[C@@H](Oc2nc3sc(-c4ccc(-c5cn[nH]c5)c5cc[nH]c45)nc3s2)CCN1` [Compound 82, 7-(5-{[(2R,4S)-2-methylpiperidin-4-yl]oxy}[1,3]thiazolo[5,4-d][1,3]thiazol-2-yl)-4-(1H-pyrazol-4-yl)-1H-indole] and `CN(c1nc2sc(-n3cnc(-c4cn[nH]c4)cc3=O)nc2s1)[C@@H]1C[C@H]2CC[C@@H](C1)N2` [Compound 172, 3-(5-{[(1R,3s,5S)-8-azabicyclo[3.2.1]octan-3-yl](methyl)amino}[1,3]thiazolo[5,4-d][1,3]thiazol-2-yl)-6-(1H-pyrazol-4-yl)pyrimidin-4(3H)-one] cannot be ordered by IC50: at most 100 nM for the first, at most 100 nM for the second.

For `CN(c1nc2sc(-c3ncc(-c4cn[nH]c4)cc3O)nc2s1)[C@@H]1C[C@H]2CC[C@@H](C1)N2` [Compound 203, 2-(5-{[(1R,3s,5S)-8-azabicyclo[3.2.1]octan-3-yl](methyl)amino}[1,3]thiazolo[5,4-d][1,3]thiazol-2-yl)-5-(1H-pyrazol-4-yl)pyridin-3-ol], the IC50 was at most 100 nM.
